Reference: US8461362B2, “Protein phosphatase 2A-activating agents” (The Ohio State University Research Foundation, priority 2009, dated 2013)
Like-named read-outs stand apart in the source and are kept apart here.

Assays:
[1] = biological target: T1, PP2A (Homo sapiens, UniProt P67775); assay: PP2A immunoprecipitation phosphatase activity assay in drug-treated LNCaP cells; format: cell-based; settings: for PP2A phosphatase activity: LNCaP cells, 12 h drug exposure; for PP2A expression (protein level): after drug treatment, Western blot
T1 construct: endogenous in cells; host or cells: LNCaP
T1 sequence (P67775 whole entry): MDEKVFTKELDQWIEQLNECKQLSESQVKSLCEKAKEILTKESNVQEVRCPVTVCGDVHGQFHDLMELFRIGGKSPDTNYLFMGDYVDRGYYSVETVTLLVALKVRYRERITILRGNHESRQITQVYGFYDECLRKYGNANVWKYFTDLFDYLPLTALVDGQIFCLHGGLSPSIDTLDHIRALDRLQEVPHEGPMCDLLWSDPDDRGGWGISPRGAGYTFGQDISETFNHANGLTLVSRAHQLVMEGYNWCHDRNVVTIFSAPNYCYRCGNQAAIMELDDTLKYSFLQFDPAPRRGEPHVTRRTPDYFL
Experimental: PP2A activity in drug-treated cells was determined by using a PP2A Immunoprecipitation Phosphatase Assay Kit (Millipore) according to the manufacturer's instructions. LNCaP cells were exposed to DMSO, VES, or TS-1 at the indicated concentrations in 2.5% FBS supplemented medium for 12 h, and subjected to cell lysis in a phosphate-free lysis buffer containing 20 mmol/L imidazole-HCl, pH 7.0, 2 mM EDTA, 2 mM EGTA, 2 mM AEBSF, 1 mM EDTA, 130 μM bestatin, 14 μM E-64, 1 μM leupeptin, and 0.3 μM aprotinin. The suspension was sonicated (Virtis) at 20% output for 10 sec, followed by centrifugation at 2000×g for 5 min. One-μL aliquots of the supernatants were taken for protein determination by BCA assays, and the remaining supernatants were used for phosphatase activity assays. Aliquots of cell lysates containing 400 μg of proteins were combined with 4 μg of anti-PP2Ac antibody (Millipore), to which was added PP2A assay buffer (20 mmol/L Hepes pH 7.0, 100 mM NaCl) to a final volume of 500 μL followed by 40 μL of Protein A-agarose. Mixtures were incubated at 4° C. for 2 h, and briefly centrifuged. The immunocomplexes were washed and used for the phosphatase activity assay. The amounts of PP2A in the immunocomplexes were determined semi-quantitatively by Western blotting.

[2] = test system: Akt, ERK, JNK and p38 phosphorylation in LNCaP cells; assay: Western blot of kinase phosphorylation in LNCaP cells; format: cell-based
Experimental: (§1) Cells cultured in T25 flasks were collected by scraping, and cell pellets were washed once with PBS. Cells were lysed in a lysis buffer consisting of 1% SDS, 10 mM EDTA and 50 mM Tris-HCl, pH 8.1, in the presence of a commercial protease inhibitor cocktail from Aldrich-Sigma (2 mM AEBSF, 1 mM EDTA, 130 μM bestatin, 14 μM E-64, 1 μM leupeptin, and 0.3 μM aprotinin). Following a 10-sec sonication using 20% output in a Virsonic 300 sonicator (Virtis, Gardiner N.Y.) to disrupt cellular organelles and genomic DNA, cell lysates were centrifuged at 15,200×g for 15 minutes. One μL of the suspension was used for protein determination using a colorimetric BCA assay (Pierce, Rockford, Ill.), and to the remaining solution was added an equivalent volume of 2×SDS-polyacrylamide gel electrophoresis sample loading buffer (62.5 mM Tris-HCl, pH 6.8, 4% SDS, 5% β-mercaptoethanol, 20% glycerol, and 0.1% bromophenol blue), and boiled for 5 min. Equal amounts of proteins were resolved in 8% SDS-polyacrylamide gels, and transferred to nitrocellulose membranes using a semidry transfer cell. The transblotted membrane was washed twice with Tris-buffered saline containing 0.1% Tween 20 (TBST). After blocking with TBST containing 5% nonfat milk for 40 min, the membrane was incubated with the appropriate primary antibody in TBST-1% nonfat milk at 4° C. overnight. […]

[3] = test system: Akt, ERK, JNK and p38 phosphorylation in PC-3 cells; assay: Western blot of kinase phosphorylation in PC-3 cells; format: cell-based
Experimental: as §1

[4] = test system: LNCaP cells; assay: MTT viability assay, LNCaP cells; format: cell-based
Experimental: (§4) LNCaP androgen-dependent (p53^+/+) and PC-3 androgen-nonresponsive (p53^−/−) prostate cancer cells were purchased from the American Type Culture Collection (Manassas, Va.), and cultured in RPMI 1640 medium containing 10% heat-inactivated FBS. […] All cell types were cultured at 37° C. in a humidified incubator containing 5% CO2. Cells in log phase growth were harvested by trypsinization for use in the MTT viability assay. LNCaP cells were plated in poly-D-lysine coated culture flasks in order to assist cell adherence to the surface. Prior to drug treatment, cells were plated in a density of 12,000 cells/cm^2 surface area in the respective culture medium for 24-48 h, followed by individual test agents in 2.5% FBS-supplemented RPMI medium.

[5] = test system: AR mRNA in LNCaP cells; assay: RT-PCR of AR mRNA in LNCaP cells; format: cell-based; settings: 10 μM
Experimental: (§2) RNA Isolation and Reverse Transcription (RT)-PCR.
(§3) LNCaP cells were subject to total RNA isolation by using a Trizol reagent (Invitrogen Corporation, CA). RNA concentrations were determined by measuring absorption at 260 nm in a spectrophotometer. Aliquots of 2 μg of total RNA from each sample were reverse transcribed to cDNAs using the iScript cDNA Synthesis Kit (Bio-Rad) according to the manufacturer's instructions. PCR products were resolved electrophoretically in 1.2% agarose gels and visualized by ethidium bromide staining.

[6] = test system: AR promoter; assay: AR promoter-luciferase reporter assay (hAR-Luc) in LNCaP cells; format: cell-based; settings: hAR-Luc transfected LNCaP cells, 72 h of exposure
Experimental: Transfection and Luciferase Assay.
Cells were transfected with 5 μg of the AR-linked luciferase reporter (hAR-Luc) plasmid in an Amaxa Nucleofector using a cell line-specific nucleofector kit according to the manufacturer's protocol (Amaxa Inc. Gaithersburg, Md.) and then seeded in T25 flasks at 3×10^5 cells per flask for 48 h. The transfection efficiency was determined by transfecting cells with 3 μg of pmaxGFP plasmid followed by fluorescence microscopy to detect green fluorescent protein expression. For each transfection, herpes simplex virus (HSV) thymidine kinase promoter-driven Renilla reniformis luciferase was used as an internal control for normalization. For the luciferase reporter gene assay, after transfection, cells were cultured in 24-well plates in 10% FBS-supplemented RPMI 1640 for 48 h, subjected to different treatments in 2.5% FBS-supplemented medium for the indicated times, collected, and lysed with passive lysis buffer (Promega). Aliquots of lysates (50 μL) were mixed with 75 μL of luciferase substrate (Promega) in 96-well plates, and luciferase activities were monitored in a MicroLumaPlus LB96V luminometer (Berthold Technologies, Oak Ridge, Tenn.) with the WinGlow software package. All transfection experiments were carried out in six replicates.

[7] = test system: Sp1 mRNA and Sp1 target genes VEGF, Mdm2, DNMT1; assay: mRNA expression of Sp1 and Sp1 downstream target genes in LNCaP cells; format: cell-based; settings: for Sp1 mRNA expression: high doses
Experimental: as §2, §3

[8] = test system: normal prostate epithelial cells (PrECs); assay: MTT viability assay, normal prostate epithelial cells
Experimental: as §4

[9] = test system: normal prostate epithelial cells (PrECs)
Experimental: as §4

Row | SMILES | PP2A phosphatase activity [1] | PP2A expression (protein level) [1] | phosphorylation levels of Akt, ERK, JNK, p38 [2] | phosphorylation levels of Akt, ERK, JNK, p38 [3] | cell viability of LNCaP cells [4] | AR mRNA transcript level [5] | AR gene transcription (luciferase reporter activity) [6] | transcription of Sp1 downstream target genes (VEGF, Mdm2, DNMT1) [7] | Sp1 mRNA expression [7] | antiproliferative effect on PrECs relative to malignant cells [8] | antiproliferative effect on PrECs relative to malignant cells [9]
1 | Cc1c(C)c2c(c(C)c1OC(=O)CCC(=O)O)CCC(C)(CCCC(C)CCCC(C)C)O2 (centres unmarked) [TS-1, succinic acid mono-[2-(4,8-dimethyl-nonyl)-2,5,7,8-tetramethylchroman-6-yl]ester] | increase PP2A phosphatase activity | without affecting its expression | dose-dependent reduction in the phosphorylation levels of all four kinases examined | also noted in PC-3 cells | suppressing the cell viability | time-dependent reduction | dose-dependent inhibitory effect | dose-dependent transcriptional repression | remained unaltered | resistant | 
2 | Cc1c(C)c2c(c(C)c1OC(=O)CCC(=O)O)CC[C@@](C)(CCC[C@H](C)CCC[C@H](C)CCCC(C)C)O2 [VES, α-tocopheryl succinate] | increase PP2A phosphatase activity | without affecting its expression | dose-dependent reduction in the phosphorylation levels of all four kinases examined | also noted in PC-3 cells | suppressing the cell viability | time-dependent reduction | dose-dependent inhibitory effect | dose-dependent transcriptional repression | remained unaltered |  | resistant
